The source of these data is US20100317524A1, “Sulfonylureas” (Bayer CropScience AG, priority 2005, published 2010).

The test system of experiment [1] is weed plants such as Sinapis alba, Echinochloa crus-galli, Lolium multiflorum, Chrysanthemum segetum, Setaria viridis, Abutilon theophrasti, Amaranthus …. Nature of the experiment: Post-emergence effect on weeds (greenhouse pot test, visual scoring). The note with it: applied post-emergence (three-leaf stage) at a rate of 0.3 kg or less of active substance per hectare; visual scoring after about 3 to 4 weeks vs untreated controls. It is filed as in vivo. On the procedure:
Seeds or sections of rhizome from monocot and dicot broadleaf weeds were laid out in sandy loam soil in plastic pots, covered with earth, and cultivated in a greenhouse under good growth conditions. Three weeks after sowing, the test plants were treated at the three-leaf stage. The compounds of the invention, formulated as wettable powders or as emulsion concentrates, were sprayed in different dosages onto the green parts of the plants, at an application rate of 600 to 800 l of water per hectare (converted). After the test plants had stood in the greenhouse under optimum growth conditions for a period of about 3 to 4 weeks, the effect of the products was scored visually in comparison to untreated controls.

Experiment [2] has as its system weed plants such as Sinapis alba, Chrysanthemum segetum, Avena sativa, Stellaria media, Echinochloa crus-galli, Lolium multiflorum, Setaria viridis, Abutilon …. As to the kind of experiment: Pre-emergence effect on weeds (greenhouse pot test, visual scoring). It is filed as in vivo. The settings on record: applied pre-emergence at a rate of 0.3 kg or less of active substance per hectare; visual scoring after 3 to 4 weeks vs untreated controls. The text has this: Seeds or sections of rhizome from monocot and dicot weed plants were laid out in sandy loam soil in cardboard pots, and covered with soil. The compounds of the invention, formulated as wettable powders or emulsifiable concentrates, were then applied, in the form of aqueous suspensions or emulsions, at various dosages, onto the surface of the covering earth, at an application rate of 600 to 800 l of water per hectare (converted). Following the treatment, the pots were placed in a greenhouse and maintained under good growth conditions for the weeds. Visual scoring of the plant damage or emergence damage was made when the test plants had emerged, after a test time of 3 to 4 weeks, in comparison to untreated controls.

The structures appear in SMILES notation.

Consider `CCCCOc1cccc(I)c1S(=O)(=O)NC(=O)Nc1nc(OC)nc(OC)n1` [Compound 1.556], for which the “herbicidal action against weed plants, post-emergence” value (from here on “herbicidal action … post-emergence”) in experiment [1] is on record as “very good herbicidal action”. The “herbicidal action against weed plants, pre-emergence” value (“herbicidal action … pre-emergence” for short) in experiment [2] is given as “very good herbicidal action”.
Take `COc1cc(Cl)nc(NC(=O)NS(=O)(=O)c2c(I)cccc2SC)n1` [Compound 1.551]: in experiment [1], the “herbicidal action … post-emergence” value is given as “very good herbicidal action”. The “herbicidal action … pre-emergence” value in experiment [2] was “very good herbicidal action”.
As for `CCCOc1cccc(I)c1S(=O)(=O)NC(=O)Nc1nc(OC)nc(OC)n1` [Compound 1.175], the “herbicidal action … post-emergence” value in experiment [1] is recorded as “very good herbicidal action”. Also, the “herbicidal action … pre-emergence” value in experiment [2] is “very good herbicidal action”.
With `COc1nc(NC(=O)NS(=O)(=O)c2c(I)cccc2OC)nc(OC)n1` [Compound 1.159], the “herbicidal action … post-emergence” value in experiment [1] is “very good herbicidal action”. In addition, the “herbicidal action … pre-emergence” value in experiment [2] is reported as “very good herbicidal action”.
Turning to `CCOc1cccc(I)c1S(=O)(=O)NC(=O)Nc1nc(C)nc(OC)n1` [Compound 1.165], the “herbicidal action … post-emergence” value in experiment [1] is reported as “very good herbicidal action”. In addition, the “herbicidal action … pre-emergence” value in experiment [2] was “very good herbicidal action”.
`CCCOc1cccc(I)c1S(=O)(=O)NC(=O)Nc1nc(Cl)cc(OC)n1` [Compound 1.174]: in experiment [1], the “herbicidal action … post-emergence” value is “very good herbicidal action”. Further, the “herbicidal action … pre-emergence” value in experiment [2] is reported as “very good herbicidal action”.
Turning to `COc1nc(NC(=O)NS(=O)(=O)c2c(I)cccc2OC(C)C(F)(F)F)nc(OC)n1` (stereo not drawn) [Compound 1.366], the “herbicidal action … post-emergence” value in experiment [1] is “very good herbicidal action”. The “herbicidal action … pre-emergence” value in experiment [2] is “very good herbicidal action”.
For `Cc1cc(C)nc(NC(=O)NS(=O)(=O)c2c(I)cccc2OCC(F)(F)C(F)(F)F)n1` [Compound 1.371], in experiment [1], the “herbicidal action … post-emergence” value is reported as “very good herbicidal action”. For the same compound, the “herbicidal action … pre-emergence” value in experiment [2] was “very good herbicidal action”.
For `COc1cc(Cl)nc(NC(=O)NS(=O)(=O)c2c(I)cccc2OC(F)F)n1` [Compound 1.330], in experiment [1], the “herbicidal action … post-emergence” value is recorded as “very good herbicidal action”. Further, the “herbicidal action … pre-emergence” value in experiment [2] is given as “very good herbicidal action”.
As for `COc1cc(Cl)nc(NC(=O)NS(=O)(=O)c2c(I)cccc2OS(=O)(=O)N(C)C)n1` [Compound 1.510], the “herbicidal action … post-emergence” value in experiment [1] was “very good herbicidal action”. Moreover, in experiment [2], the “herbicidal action … pre-emergence” value is given as “very good herbicidal action”.
For `COc1cc(Cl)nc(NC(=O)NS(=O)(=O)c2c(I)cccc2OCC(F)(F)C(F)(F)F)n1` [Compound 1.372], the “herbicidal action … post-emergence” value in experiment [1] was “very good herbicidal action”. Further, the “herbicidal action … pre-emergence” value in experiment [2] is “very good herbicidal action”.
Take `COc1cc(OC)nc(NC(=O)NS(=O)(=O)c2c(I)cccc2OC)n1` [Compound 1.146, N-{[(4,6-Dimethoxypyrimidin-2-yl)amino]carbonyl}-2-iodo-6-methoxybenzenesulfonamide]: in experiment [1], the “herbicidal action … post-emergence” value was “very good herbicidal action”. Besides, in experiment [2], the “herbicidal action … pre-emergence” value is reported as “very good herbicidal action”.
On to `Cc1cc(C)nc(NC(=O)NS(=O)(=O)c2c(I)cccc2OC(F)(F)F)n1` [Compound 1.310], for which the “herbicidal action … post-emergence” value in experiment [1] is given as “very good herbicidal action”. Moreover, the “herbicidal action … pre-emergence” value in experiment [2] was “very good herbicidal action”.
With `COc1nc(C)nc(NC(=O)NS(=O)(=O)c2c(I)cccc2OC(F)(F)F)n1` [Compound 1.306], the “herbicidal action … post-emergence” value in experiment [1] was “very good herbicidal action”. Moreover, in experiment [2], the “herbicidal action … pre-emergence” value is “very good herbicidal action”.
Consider `Cc1cc(C)nc(NC(=O)NS(=O)(=O)c2c(I)cccc2OC(F)F)n1` [Compound 1.329], for which the “herbicidal action … post-emergence” value in experiment [1] is “very good herbicidal action”. In addition, in experiment [2], the “herbicidal action … pre-emergence” value is on record as “very good herbicidal action”.
